Laboratory results published in US20160046597A1, “RORC2 INHIBITORS AND METHODS OF USE THEREOF” (PFIZER INC., priority 2013, published 2016).

Target: T1, RORC2 ligand binding domain (6-His-RORC2 LBD) (Homo sapiens, UniProt P51449)
T1 construct: made in house; host or cells: E. coli
T1 sequence (P51449 269-508 limits assumed): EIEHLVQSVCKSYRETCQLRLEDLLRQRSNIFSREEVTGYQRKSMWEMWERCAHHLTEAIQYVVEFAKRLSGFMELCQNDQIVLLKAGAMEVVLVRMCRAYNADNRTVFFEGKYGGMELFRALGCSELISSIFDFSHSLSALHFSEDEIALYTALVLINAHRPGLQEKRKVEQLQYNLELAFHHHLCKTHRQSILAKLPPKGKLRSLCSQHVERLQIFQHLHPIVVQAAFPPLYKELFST
Assay: Co-activator recruitment by TR-FRET (RORC2 FRET)
Type: biochemical
Conditions: 6.3 nM RORC2 LBD, 200 nM SRC1-2 coactivator peptide, 3 hours room temperature
Source text: The activity of compound of the invention can be determined by a co-activator recruitment by TR-FRET (time-resolved fluorescence resonance energy transfer) assay. […] Due to the long lasting fluorescence emission of Europium, the non-specific, short-lived fluorescence is time-resolved (TR) from the fluorescence of interest. Inhibitors of the interaction of receptor and coactivator peptide are detected by a decrease in TR-FRET signal.
Specifically, in one embodiment the aforementioned assay was performed as outlined below. The assay was carried out in black polystyrene, 384-well plates in a total assay volume of 50.5 μL. The assay buffer contained 50 mM TRIS-HCL pH 7.5, 1 mM NaCl, 2 mM MgCl2, 0.5 mg/mL bovine serum albumin, and 5 mM dithiothreitol.

Row | IC50 [nM] | SMILES
1 | 211 | O=C(O)c1cccc(C(=O)Nc2ccc3[nH]cc(C4CCN(C(=O)C5CCCC5)CC4)c3c2)c1 [Example 48, 3-({3-[1-(cyclopentylcarbonyl)piperidin-4-yl]-1H-indol-5-yl}carbamoyl)benzoic acid]
2 | 1380 | O=C(Nc1ccc2[nH]cc(C3CCN(C(=O)C4CCCC4)CC3)c2c1)c1cccc2ncsc12 [Example 49, N-{3-[1-(cyclopentylcarbonyl)piperidin-4-yl]-1H-indol-5-yl}-1,3-benzothiazole-7-carboxamide]
3 | 1430 | NC(=O)c1cccc(C(=O)Nc2ccc3[nH]cc(C4CCN(C(=O)C5CCCC5)CC4)c3c2)c1 [Example 50, N-{3-[1-(cyclopentylcarbonyl)piperidin-4-yl]-1H-indol-5-yl}isophthalamide]
4 | 871 | O=C(Nc1ccc2[nH]cc(C3CCN(C(=O)C4CCCC4)CC3)c2c1)c1ccc2[nH]cnc2c1 [Example 51, N-{3-[1-(cyclopentylcarbonyl)piperidin-4-yl]-1H-indol-5-yl}-1H-benzimidazole-5-carboxamide]
5 | 1110 | Cn1cnc2cc(C(=O)Nc3ccc4[nH]cc(C5CCN(C(=O)C6CCCC6)CC5)c4c3)ccc21 [Example 52, N-{3-[1-(cyclopentylcarbonyl)piperidin-4-yl]-1H-indol-5-yl}-1-methyl-1H-benzimidazole-5-carboxamide]
6 | 124 | Cc1ncc(C(=O)Nc2ccc3[nH]cc(C4CCN(C(=O)C5CCCC5)CC4)c3c2)cc1C#N [Example 53, 5-cyano-N-{3-[1-(cyclopentylcarbonyl)piperidin-4-yl]-1H-indol-5-yl}-6-methylnicotinamide]
7 | 256 | Cn1cc(C2CCN(C(=O)C3CCCC3)CC2)c2cc(NC(=O)N3CCCC(C#N)C3)ccc21 (centres unmarked) [Example 58, 3-cyano-N-(3-(1-(cyclopentanecarbonyl)piperidin-4-yl)-1-methyl-1H-indol-5-yl)piperidine-1-carboxamide]
8 | 330 | CN(CCC#N)C(=O)Nc1ccc2c(c1)c(C1CCN(C(=O)C3CCCC3)CC1)cn2C [Example 59, 1-(2-cyanoethyl)-3-{3-[1-(cyclopentylcarbonyl)piperidin-4-yl]-1-methyl-1H-indol-5-yl}-1-methylurea]
9 | 216 | Cn1cc(C2CCN(C(=O)C3CCCC3)CC2)c2cc(NC(=O)N3CC[C@H](C#N)C3)ccc21 [Example 60, (3S)-3-cyano-N-{3-[1-(cyclopentylcarbonyl)piperidin-4-yl]-1-methyl-1H-indol-5-yl}pyrrolidine-1-carboxamide]
10 | 335 | Cn1cc(C2CCN(C(=O)C3CCCC3)CC2)c2cc(NC(=O)N3CC(CC#N)C3)ccc21 [Example 61, 3-(cyanomethyl)-N-{3-[1-(cyclopentylcarbonyl)piperidin-4-yl]-1-methyl-1H-indol-5-yl}azetidine-1-carboxamide]
11 | 425 | Cn1cc(C2CCN(C(=O)C3CCCC3)CC2)c2cc(NC(=O)N3CCOC(C#N)C3)ccc21 (centres unmarked) [Example 62, 2-cyano-N-{3-[1-(cyclopentylcarbonyl)piperidin-4-yl]-1-methyl-1H-indol-5-yl}morpholine-4-carboxamide]
12 | 193 | Cn1cc(C2CCN(C(=O)C3CCCC3)CC2)c2cc(NC(=O)N3CC(C#N)C3)ccc21 [Example 63, 3-cyano-N-{3-[1-(cyclopentylcarbonyl)piperidin-4-yl]-1-methyl-1H-indol-5-yl}azetidine-1-carboxamide]
13 | 5.8 | Cn1cc(C2CCN(C(=O)C3CCCC3)CC2)c2cc(NS(=O)(=O)c3ccc(F)cc3)ccc21 [Example 64, N-(3-(1-(cyclopentylcarbonyl)piperidin-4-yl)-1-methyl-1H-indol-5-yl)-4-fluorobenzenesulfonamide]
14 | 37.3 | Cn1cc(C2CCN(C(=O)C3CCCC3)CC2)c2cc(NS(=O)(=O)c3cnc(N)nc3)ccc21 [Example 65, 2-amino-N-{3-[1-(cyclopentylcarbonyl)piperidin-4-yl]-1-methyl-1H-indol-5-yl}pyrimidine-5-sulfonamide]
15 | 7 | Cn1cc(C2CCN(C(=O)C3CCCC3)CC2)c2cc(NS(=O)(=O)c3cccc(F)c3)ccc21 [Example 66, N-{3-[1-(cyclopentylcarbonyl)piperidin-4-yl]-1-methyl-1H-indol-5-yl}-3-fluorobenzenesulfonamide]
16 | 11.4 | Cn1cc(C2CCN(C(=O)C3CCCC3)CC2)c2cc(NS(=O)(=O)c3cccc(C#N)c3)ccc21 [Example 67, 3-cyano-N-{3-[1-(cyclopentylcarbonyl)piperidin-4-yl]-1-methyl-1H-indol-5-yl}benzenesulfonamide]
17 | 6.5 | Cn1cc(C2CCN(C(=O)C3CCCC3)CC2)c2cc(NS(=O)(=O)c3ccccc3)ccc21 [Example 68, N-{3-[1-(cyclopentylcarbonyl)piperidin-4-yl]-1-methyl-1H-indol-5-yl}benzenesulfonamide]
18 | 270 | Cn1cnc(S(=O)(=O)Nc2ccc3c(c2)c(C2CCN(C(=O)C4CCCC4)CC2)cn3C)c1 [Example 69, N-{3-[1-(cyclopentylcarbonyl)piperidin-4-yl]-1-methyl-1H-indol-5-yl}-1-methyl-1H-imidazole-4-sulfonamide]

Row | IC50 [nM] | SMILES
19 | 7.2 | Cn1cc(C2CCN(C(=O)C3CCCC3)CC2)c2cc(NS(=O)(=O)C3CCCCC3)ccc21 [Example 70, N-{3-[1-(cyclopentylcarbonyl)piperidin-4-yl]-1-methyl-1H-indol-5-yl}cyclohexanesulfonamide]
20 | 23.9 | Cn1cc(C2CCN(C(=O)C3CCCC3)CC2)c2cc(NS(=O)(=O)c3ccc(C#N)cc3)ccc21 [Example 71, 4-cyano-N-{3-[1-(cyclopentylcarbonyl)piperidin-4-yl]-1-methyl-1H-indol-5-yl}benzenesulfonamide]
21 | 128 | Cn1cc(C2CCN(C(=O)C3CCCC3)CC2)c2cc(NS(=O)(=O)C3CC3)ccc21 [Example 72, N-{3-[1-(cyclopentylcarbonyl)piperidin-4-yl]-1-methyl-1H-indol-5-yl}cyclopropanesulfonamide]
22 | 67.7 | CCCS(=O)(=O)Nc1ccc2c(c1)c(C1CCN(C(=O)C3CCCC3)CC1)cn2C [Example 73, N-{3-[1-(cyclopentylcarbonyl)piperidin-4-yl]-1-methyl-1H-indol-5-yl}propane-1-sulfonamide]
23 | 53 | COCCCS(=O)(=O)Nc1ccc2c(c1)c(C1CCN(C(=O)C3CCCC3)CC1)cn2C [Example 74, N-{3-[1-(cyclopentylcarbonyl)piperidin-4-yl]-1-methyl-1H-indol-5-yl}-3-methoxypropane-1-sulfonamide]
24 | 14.7 | COc1ccc(S(=O)(=O)Nc2ccc3c(c2)c(C2CCN(C(=O)C4CCCC4)CC2)cn3C)cc1 [Example 75]
25 | 22.9 | Cn1cc(C2CCN(C(=O)C3CCCC3)CC2)c2cc(NS(=O)(=O)c3cccnc3)ccc21 [Example 76, N-{3-[1-(cyclopentylcarbonyl)piperidin-4-yl]-1-methyl-1H-indol-5-yl}pyridine-3-sulfonamide]
26 | 50.5 | Cn1cc(C2CCN(C(=O)C3CCCC3)CC2)c2cc(NS(=O)(=O)Cc3ccccc3)ccc21 [Example 77, N-{3-[1-(cyclopentylcarbonyl)piperidin-4-yl]-1-methyl-1H-indol-5-yl}-1-phenylmethanesulfonamide]
27 | 199 | Cn1cc(C2CCN(C(=O)C3CCCC3)C2)c2cc(NC(=O)c3cccc(C#N)c3)ccc21 (centres unmarked) [Example 79, 3-cyano-N-(3-(1-(cyclopentylcarbonyl)pyrrolidin-3-yl)-1-methyl-1H-indol-5-yl)benzamide]
28 | 259 | CC(C)c1cnc(N2CCC(c3cn(C)c4ccc(NC(=O)c5cccc(C#N)c5)cc34)CC2)nc1 [Example 80]
29 | 335 | Cc1cnc(N2CCC(c3cn(C)c4ccc(NC(=O)c5cccc(C#N)c5)cc34)CC2)nc1 [Example 81, 3-cyano-N-(1-methyl-3-(1-(5-methylpyrimidin-2-yl)piperidin-4-yl)-1H-indol-5-yl)benzamide]
30 | 3960 | CC(C)c1cnc(N2CCC(c3cn(C)c4ccc(NC(=O)c5cccc(C#N)c5)cc34)CC2)nc1 [Example 82, 3-cyano-N-(3-[1-(5-isopropylpyrimidin-2-yl)piperidin-4-yl]-1-methyl-1H-indol-5-yl)benzamide]
31 | 23.4 | N#Cc1cccc(C(=O)Nc2ccc3onc(C4CCN(C(=O)C5CCCC5)CC4)c3c2)c1 [Example 83, 3-cyano-N-(3-(1-(cyclopentanecarbonyl)piperidin-4-yl)benzo[d]isoxazol-5-yl)benzamide]
32 | 214 | N#Cc1cccc(C(=O)Nc2ccc3cnn(C4CCN(C(=O)C5CCCC5)CC4)c3c2)c1 [Example 84, 3-cyano-N-(1-(1-(cyclopentanecarbonyl)piperidin-4-yl)-1H-indazol-6-yl)benzamide]
33 | 859 | N#Cc1cccc(C(=O)Nc2ccc3[nH]cc(C4CCN(C(=O)NC5CCCC5)CC4)c3c2)c1 [Example 85, 4-(5-(3-cyanobenzamido)-1H-indol-3-yl)-N-cyclopentylpiperidine-1-carboxamide]
34 | > 20000 | N#Cc1cccc(C(=O)Nc2ccc3[nH]cc(C4CCN(S(=O)(=O)C5CCCC5)CC4)c3c2)c1 [Example 86, 3-cyano-N-(3-(1-(cyclopentylsulfonyl)piperidin-4-yl)-1H-indol-5-yl)benzamide]
35 | > 20000 | N#Cc1cccc(C(=O)Nc2ccc3[nH]cc(C4CCN(CC5CCCC5)CC4)c3c2)c1 [Example 87, 3-cyano-N-(3-(1-(cyclopentylmethyl)piperidin-4-yl)-1H-indol-5-yl)benzamide]
